In US20250197428A1, “INHIBITORS OF KIF18A AND USES THEREOF” (ACCENT THERAPEUTICS, INC., priority 2022, published 2025):

Legend:
OVCAR-3 cells = experiment: In vitro anti-proliferative activity assay in cancer cell line OVCAR-3 (CellTiter-Glo, 4- or 7-day); type: cell-based; settings: Homo sapiens, OVCAR-3, 168 h, 7-day assay; read-out: OVCAR-3 cellular antiproliferation assay IC50
KIF18A = KIF18A (Homo sapiens (Human), UniProt Q8NI77); experiment: KIF18A Biochemical Assay (ATPase, ADP-Glo)
KIF18A, sequence (Q8NI77 1-367): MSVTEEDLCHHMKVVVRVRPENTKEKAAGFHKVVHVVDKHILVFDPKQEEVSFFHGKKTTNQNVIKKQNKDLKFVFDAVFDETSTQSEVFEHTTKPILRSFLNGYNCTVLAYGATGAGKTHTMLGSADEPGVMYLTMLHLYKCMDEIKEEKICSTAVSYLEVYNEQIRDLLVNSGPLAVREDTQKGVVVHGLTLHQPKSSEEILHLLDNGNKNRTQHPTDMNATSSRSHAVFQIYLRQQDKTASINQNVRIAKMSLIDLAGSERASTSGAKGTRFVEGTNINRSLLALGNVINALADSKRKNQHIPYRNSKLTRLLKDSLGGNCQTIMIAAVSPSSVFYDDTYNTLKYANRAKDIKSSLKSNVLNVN
KIF18A, sequence (P02550 whole entry partner): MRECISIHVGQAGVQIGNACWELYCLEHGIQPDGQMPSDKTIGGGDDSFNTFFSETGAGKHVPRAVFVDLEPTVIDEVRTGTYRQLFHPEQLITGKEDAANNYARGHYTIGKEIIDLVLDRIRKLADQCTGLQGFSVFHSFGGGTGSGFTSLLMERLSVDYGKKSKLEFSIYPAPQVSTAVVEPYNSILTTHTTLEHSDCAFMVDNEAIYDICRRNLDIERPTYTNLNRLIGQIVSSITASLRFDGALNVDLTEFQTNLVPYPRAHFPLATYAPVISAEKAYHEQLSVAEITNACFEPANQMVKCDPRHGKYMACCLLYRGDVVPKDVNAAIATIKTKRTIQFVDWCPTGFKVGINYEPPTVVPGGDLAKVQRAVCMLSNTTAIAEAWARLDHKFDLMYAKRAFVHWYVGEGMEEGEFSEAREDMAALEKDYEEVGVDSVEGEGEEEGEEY
KIF18A, sequence (P02554 whole entry partner): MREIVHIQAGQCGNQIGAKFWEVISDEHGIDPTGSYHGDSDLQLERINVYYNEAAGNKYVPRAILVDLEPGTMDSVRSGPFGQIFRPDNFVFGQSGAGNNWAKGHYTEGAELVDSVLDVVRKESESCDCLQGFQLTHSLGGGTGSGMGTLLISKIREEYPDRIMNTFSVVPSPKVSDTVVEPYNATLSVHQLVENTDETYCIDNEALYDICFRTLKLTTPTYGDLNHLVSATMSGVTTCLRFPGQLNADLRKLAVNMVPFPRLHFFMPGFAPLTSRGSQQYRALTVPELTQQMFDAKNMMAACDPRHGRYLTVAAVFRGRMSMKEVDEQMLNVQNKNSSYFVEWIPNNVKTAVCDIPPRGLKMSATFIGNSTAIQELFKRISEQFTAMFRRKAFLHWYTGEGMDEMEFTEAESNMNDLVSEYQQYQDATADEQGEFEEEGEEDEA

Row | Structure (SMILES) | IC50 (OVCAR-3 cells) | IC50 (KIF18A)
1 | C[Si]1(C)CCN(c2cc(S(=O)(=O)NCCO)ccc2C(=O)Nc2cccc(OCCC(F)(F)F)n2)CC1 [Example 99] | < 100 nM | < 100 nM
2 | CNCCS(=O)(=O)Nc1ccc(C(=O)Nc2cccc(N3CCC(F)(F)CC3)n2)c(N2CC[Si](C)(C)CC2)c1 [Example 101] | 100 to 500 nM | < 100 nM
3 | Cc1cc(NC(=O)c2cc(F)c(NS(=O)(=O)CCO)cc2N2CC[Si](C)(C)CC2)nc(N2CCC(F)(F)CC2)n1 [Example 103] | 100 to 500 nM | < 100 nM
4 | Cc1cc(NC(=O)c2ncc(NS(=O)(=O)CCO)nc2N2CC[Si](C)(C)CC2)nc(N2CCC(F)(F)CC2)n1 [Example 105] | > 1000 nM | > 1000 nM
5 | Cc1cc(NC(=O)c2ccc(NS(=O)(=O)C(C)CO)cc2N2CC[Si](C)(C)CC2)nc(N2CC(F)(F)C2)c1 (stereo not shown) [Example 114] | < 100 nM | < 100 nM
6 | Cc1cc(NC(=O)c2c(F)cc(NS(=O)(=O)CCO)c(F)c2N2CC[Si](C)(C)CC2)nc(N2CCC(F)(F)CC2)n1 [Example 116] | > 1000 nM | 500 to 1000 nM
7 | C[Si]1(C)CCN(c2cc(NS(=O)(=O)CCO)ccc2C(=O)Nc2cccc(OC[C@H](O)C(F)(F)F)n2)CC1 [Example 122] | < 100 nM | < 100 nM
8 | C[Si]1(C)CCN(c2cc(NS(=O)(=O)CCO)cc(F)c2C(=O)Nc2cccc(OC[C@@H](O)C(F)(F)F)n2)CC1 [Example 123] | 500 to 1000 nM | < 100 nM
9 | C[Si]1(C)CCN(c2cc(NS(=O)(=O)CCO)cc(F)c2C(=O)Nc2cccc(OC[C@H](O)C(F)(F)F)n2)CC1 [Example 124] | 100 to 500 nM | < 100 nM
10 | C[Si]1(C)CCN(c2cc(NS(=O)(=O)NCCO)ccc2C(=O)Nc2cccc(OC[C@@H](O)C(F)(F)F)n2)CC1 [Example 125] | 100 to 500 nM | < 100 nM
11 | C[Si]1(C)CCN(c2cc(NS(=O)(=O)NCCO)ccc2C(=O)Nc2cccc(OC[C@H](O)C(F)(F)F)n2)CC1 [Example 126] | 100 to 500 nM | < 100 nM
12 | C[Si]1(C)CCN(c2cc(NS(C)(=O)=O)ccc2C(=O)Nc2cccc(OC[C@H](O)C(F)(F)F)n2)CC1 [Example 128] | 100 to 500 nM | < 100 nM
13 | C[Si]1(C)CCN(c2cc(S(=O)(=O)CCO)ccc2C(=O)Nc2cccc(OC[C@@H](O)C(F)(F)F)n2)CC1 [Example 129] | 100 to 500 nM | < 100 nM
14 | C[Si]1(C)CCN(c2cc(S(=O)(=O)CCO)ccc2C(=O)Nc2cccc(OC[C@H](O)C(F)(F)F)n2)CC1 [Example 130] | 100 to 500 nM | < 100 nM
15 | C[Si]1(C)CCN(c2cc(S(=O)(=O)NCCO)ccc2C(=O)Nc2cccc(OC[C@@H](O)C(F)(F)F)n2)CC1 [Example 131] | < 100 nM | < 100 nM
16 | C[Si]1(C)CCN(c2cc(S(=O)(=O)NCCO)ccc2C(=O)Nc2cccc(OC[C@H](O)C(F)(F)F)n2)CC1 [Example 132] | < 100 nM | < 100 nM
17 | Cc1cc(NC(=O)c2ccc(NS(=O)(=O)CCO)cc2N2CC[Si](C)(C)CC2)nc(N2CCC(F)(F)CC2)c1F [Example 133] | 100 to 500 nM | < 100 nM
